Assays:
[1] = Cytotoxicity against drug-resistant human MDA-MB-435/LCC6MDR1 cells assessed as reduction in cell viability after 48 hrs by MTT assay; assay type: functional, cell-based; conditions: MDA-MB-435/LCC6 MDR1, 48 h
Cytochrome P450 1A1 = biological target: T1, Cytochrome P450 1A1 (Homo sapiens, UniProt P04798); experiment: Inhibition of recombinant human CYP1A1 expressed in supersomes using 7-ethoxyresorufin as substrate after 15 mins in presence of NADP+ by EROD assay; assay type: ADME
T1 sequence (P04798 whole entry): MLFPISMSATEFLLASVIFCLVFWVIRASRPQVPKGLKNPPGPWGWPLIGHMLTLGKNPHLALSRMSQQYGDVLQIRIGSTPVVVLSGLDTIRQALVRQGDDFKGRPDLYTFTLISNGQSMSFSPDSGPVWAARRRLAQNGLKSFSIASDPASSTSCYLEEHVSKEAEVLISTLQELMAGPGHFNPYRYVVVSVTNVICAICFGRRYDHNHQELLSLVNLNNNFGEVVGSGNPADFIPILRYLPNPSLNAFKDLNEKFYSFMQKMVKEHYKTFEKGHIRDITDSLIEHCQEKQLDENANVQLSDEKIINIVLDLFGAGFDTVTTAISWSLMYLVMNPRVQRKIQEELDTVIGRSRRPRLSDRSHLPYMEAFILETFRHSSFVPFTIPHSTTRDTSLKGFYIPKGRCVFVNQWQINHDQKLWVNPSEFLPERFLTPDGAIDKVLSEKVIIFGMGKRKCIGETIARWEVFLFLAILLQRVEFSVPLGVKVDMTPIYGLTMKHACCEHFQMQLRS

MCF7 [2] = experiment: cells; conditions: Homo sapiens, MCF7, 48 h
Description: Cytotoxicity against human MCF7 cells assessed as reduction in cell viability after 48 hrs by MTT assay

MCF7 [3] = experiment: Cytotoxicity against drug-resistant […]-induced human MCF7 cells overexpressing CYP1B1 assessed as reduction in cell viability after 48 hrs by MTT assay; assay type: functional, cell-based; conditions: MCF7, 48 h
MDA-MB-231 = experiment: cells; conditions: Homo sapiens, MDA-MB-231, 48 h
Description: Cytotoxicity against human MDA-MB-231 cells assessed as reduction in cell viability after 48 hrs by MTT assay

Cytochrome P450 1A2 = biological target: T2, Cytochrome P450 1A2 (Homo sapiens, UniProt P05177); experiment: Inhibition of recombinant human CYP1A2 expressed in supersomes using 7-ethoxyresorufin as substrate after 50 mins in presence of NADP+ by EROD assay; assay type: ADME
T2 sequence (P05177 whole entry): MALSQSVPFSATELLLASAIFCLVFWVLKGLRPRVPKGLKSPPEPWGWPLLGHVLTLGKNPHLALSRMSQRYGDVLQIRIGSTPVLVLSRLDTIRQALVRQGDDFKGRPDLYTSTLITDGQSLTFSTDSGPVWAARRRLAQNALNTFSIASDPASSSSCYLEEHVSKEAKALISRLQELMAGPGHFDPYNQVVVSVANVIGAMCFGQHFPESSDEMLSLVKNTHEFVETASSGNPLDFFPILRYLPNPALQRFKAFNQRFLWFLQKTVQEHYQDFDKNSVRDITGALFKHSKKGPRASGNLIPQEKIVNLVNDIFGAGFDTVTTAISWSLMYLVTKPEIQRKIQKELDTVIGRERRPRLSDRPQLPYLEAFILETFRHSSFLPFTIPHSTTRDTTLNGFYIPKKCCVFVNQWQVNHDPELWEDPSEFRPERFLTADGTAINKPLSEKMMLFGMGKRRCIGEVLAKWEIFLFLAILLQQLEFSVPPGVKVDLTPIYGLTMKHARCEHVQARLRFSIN

SMILES	IC50 (Cytochrome P450 1A2)	other results
O=c1cc(-c2ccccc2)oc2c1ccc1ccccc12 [ALPHA-NAPHTHOFLAVONE]		IC50 [1]: 82.3 µM; IC50 (Cytochrome P450 1A1): 80.3 nM; IC50 (MCF7 [2]): 80.7 µM; IC50 (MCF7 [3]): > 100 µM; IC50 (MDA-MB-231): > 100 µM
O=C(/C=C/c1ccccc1)c1ccc2ccccc2c1O	> 1000 nM	
O=C(/C=C/c1cccnc1)c1ccc2ccccc2c1O	227 nM	
O=C(/C=C/c1ccc[nH]1)c1ccc2ccccc2c1O	> 1000 nM	
O=C(/C=C/c1ccc(Cl)cc1)c1ccc2ccccc2c1O	> 1000 nM	
COc1c(C(=O)/C=C/c2ccccc2)ccc2ccccc12	> 1000 nM	
COc1ccccc1/C=C/C(=O)c1ccc2ccccc2c1O	> 1000 nM	
O=C(/C=C/c1ccc(F)cc1)c1ccc2ccccc2c1O	> 1000 nM	
O=C(/C=C/c1ccncc1)c1ccc2ccccc2c1O	> 1000 nM	
COc1ccc(OC)c2c(OC)c(/C=C/C(=O)c3ccc4ccccc4c3O)cc(OC)c12	> 1000 nM	
O=C(/C=C/c1cccc(Cl)c1)c1ccc2ccccc2c1O	> 1000 nM	
O=C(/C=C/c1ccccc1)c1ccc2ccccc2c1	> 1000 nM	IC50 [1]: 19.4 µM; IC50 (MCF7 [2]): 24.7 µM; IC50 (MCF7 [3]): 18.2 µM; IC50 (MDA-MB-231): 34.1 µM
O=C(/C=C/c1ccccc1O)c1ccc2ccccc2c1O	> 1000 nM	
COc1ccc(OC)c2c(O)c(C(=O)/C=C/c3ccccc3)cc(OC)c12	735 nM	
Nc1c(C(=O)/C=C/c2ccccc2)ccc2ccccc12	> 1000 nM	
O=C(/C=C/c1ccccn1)c1ccc2ccccc2c1O	> 1000 nM	
O=C(/C=C/c1cccc(F)c1)c1ccc2ccccc2c1O	> 1000 nM	
O=C(/C=C/c1ccccc1F)c1ccc2ccccc2c1O	> 1000 nM	
O=C(/C=C/c1ccccc1Cl)c1ccc2ccccc2c1O	> 1000 nM	
O=c1[nH]cc(F)c(=O)[nH]1 [FLUOROURACIL]		IC50 [1]: > 100 µM; IC50 (MCF7 [2]): > 100 µM; IC50 (MCF7 [3]): > 100 µM; IC50 (MDA-MB-231): 93.8 µM
O=C(CCc1ccccc1)c1ccc2ccccc2c1O	> 1000 nM	
Nc1nc(-c2ccccc2)cc(-c2ccc3ccccc3c2)n1	> 1000 nM	

— ChEMBL document CHEMBL4334432, “Development of benzochalcone derivatives as selective CYP1B1 inhibitors and anticancer agents” (Medchemcomm, 2019)
